pIC50: −log10 of the molar value. Read-outs that look alike come from different tables or passages of the source.

Results on 3 compounds are retold here after patent publication US20100173281A1, “HCV NS3 protease replicon shuttle vectors” (priority 2009, published 2010).

The subject of assay [1] is replicons that contain HCV genotype-1b patient-derived NS3 protease domains in Lunet Huh7 cells. In words: Phenotypic replicon assay (transient replicon, firefly luciferase reporter), genotype-1b patient-derived NS3 protease. The class given is cell-based. In general terms: In antiviral work, replicon cells carry a viral genome segment that copies itself.
Assay [2] concerns replicon shuttle vector pSC_1b_NS3/Protease_EcoRV_AsiSI in Lunet Huh7 cells. Kind of assay: Phenotypic replicon assay (transient replicon, firefly luciferase reporter), control shuttle vector. The conditions noted are these: read-out: Mean IC50. In kind it is cell-based, HCV. The method, then: Phenotypic Replicon Assay
Five micrograms of DNA plasmids were linearized by Sca I restriction enzyme (Roche). After overnight digestion at 37° C., the DNA was purified using Qiagen PCR purification kit. One microgram of linearized DNA was used for the in vitro transcription using T7 RiboMAX Express (Promega) following manufacturer's protocol. After 2 hours of incubation at 37° C., DNase treatment was performed for 30 minutes at 37° C. to remove the DNA template. In vitro transcribed RNA was then purified using RNeasy spin column (Qiagen) following manufacturer's protocol.
The hepatoma Lunet Huh-7 cell line were cultured at 37° C. in a humidified atmosphere with 5% CO2 in Dulbecco's Modified Eagle Medium (DMEM) supplemented with Glutamax™ and […] sodium pyruvate. The medium was further supplemented with 10% (v/v) FBS and 1% (v/v) penicillin/streptomycin. All reagents were from Invitrogen/Gibco.
Four million Lunet Huh7 cells were transfected with 5 μg of in vitro transcribed RNA using electroporation. Cells were then resuspended in 7.2 ml of DMEM containing 5% FBS and plated in 96-well plate at 50000 cells/well (in 90 μl final volume). Inhibitors (when used) were added 24 hours post-transfection in 3 fold dilutions at a final DMSO concentration of 1% and firefly luciferase reporter signal was read 72 hours after addition of inhibitors using the Luciferase Assay system (Promega). The IC50 values were assessed as the inhibitor concentration at which a 50% reduction in the level of firefly luciferase reporter was observed as compared to the level of firefly luciferase signal without the addition of compounds.
The replication capacity of the replicon shuttle vector, pSC—1b_NS3/Protease_EcoRV_AsiSI, as well as those of replicons that contain HCV genotype-1a and genotype-1b patient-derived NS3 protease domains were tested with the luciferase signal as the readout and the results are shown on FIG. 3. The inhibitory effects of the HCV protease inhibitors, BILN2061, VX-950 and NM107 were also tested on these replicons and the results are shown on Table 1.

Assay [3] has as its system replicons that contain HCV genotype-1a patient-derived NS3 protease domains in Lunet Huh7 cells. In words: Phenotypic replicon assay (transient replicon, firefly luciferase reporter), genotype-1a patient-derived NS3 protease. In kind it is cell-based.
Where [4] appears, read: Hepatitis C virus, Huh-7, read-out: Mean IC50, GT-1b patient sample 206.
The mark [5] stands for this setting: Hepatitis C virus, Huh-7, read-out: Mean IC50, GT-1b patient sample 301.
The mark [6] stands for this setting: Hepatitis C virus, Huh-7, read-out: Mean IC50, GT-1b patient sample PC232.
Setting [7] is: Hepatitis C virus, Huh-7, read-out: Mean IC50, GT-1a patient sample RO-191.
The mark [8] stands for this setting: Hepatitis C virus, Huh-7, read-out: Mean IC50, GT-1a patient sample RO-192.
[9] abbreviates: Hepatitis C virus, Huh-7, read-out: Mean IC50, GT-1a patient sample RO-193.
Setting [10] is: Hepatitis C virus, Huh-7, read-out: Mean IC50, GT-1a patient sample RO-194.
[11] abbreviates: Hepatitis C virus, Huh-7, read-out: Mean IC50, GT-1a patient sample RO-195.
[12] abbreviates: Hepatitis C virus, Huh-7, read-out: Mean IC50, GT-1a patient sample RO-207.

With `CCC[C@H](NC(=O)[C@@H]1[C@H]2CCC[C@H]2CN1C(=O)[C@@H](NC(=O)[C@@H](NC(=O)c1cnccn1)C1CCCCC1)C(C)(C)C)C(=O)C(=O)NC1CC1` [VX-950], the pIC50 in assay [1] (setting [4]) was 9.76; in assay [1] (setting [5]) it was 9.79; in assay [1] (setting [6]), 9.78; in assay [2] (Hepatitis C virus, Huh-7, 72 h) it was 9.80; in assay [3] (setting [7]), 10.24; in assay [3] (setting [8]), 10.17. The negative logarithm of the IC50 (pIC50) is 9.88 in assay [3] (setting [9]), 10.28 in assay [3] (setting [10]), 10.55 in assay [3] (setting [11]) and 10.08 in assay [3] (setting [12]).
Turning to `C[C@@]1(O)[C@H](O)[C@@H](CO)O[C@H]1n1ccc(N)nc1=O` [NM107], the pIC50 in assay [1] (GT-1b patient sample 206, read-out: Mean IC50) is 6.55; in assay [1] (GT-1b patient sample 301, read-out: Mean IC50), 6.55; in assay [1] (GT-1b patient sample PC232, read-out: Mean IC50) it was 6.35; in assay [2] (replicon control pSC_1b_NS3/Protease_EcoRV_AsiSI, luciferase read 72 hours after addition of inhibitors), 6.55; in assay [3] (GT-1a patient sample RO-191, read-out: Mean IC50), 6.27; in assay [3] (GT-1a patient sample RO-192, read-out: Mean IC50), 6.26. Moreover, the negative-log IC50 (pIC50) in assay [3] (GT-1a patient sample RO-193, read-out: Mean IC50) was 6.19; in assay [3] (GT-1a patient sample RO-194, read-out: Mean IC50), 6.29; in assay [3] (GT-1a patient sample RO-195, read-out: Mean IC50) it was 6.51; in assay [3] (GT-1a patient sample RO-207, read-out: Mean IC50), 5.93.
In the case of `COc1ccc2c(O[C@@H]3C[C@H]4C(=O)N[C@]5(C(=O)O)C[C@H]5/C=C\CCCCC[C@H](NC(=O)OC5CCCC5)C(=O)N4C3)cc(-c3csc(NC(C)C)n3)nc2c1` [BILN2061], the negative logarithm of the IC50 (pIC50) in assay [1] (setting [4]) is 9.19; in assay [1] (setting [5]), 9.42; in assay [1] (setting [6]), 9.33; in assay [2] (Hepatitis C virus, Huh-7, 72 h), 9.31; in assay [3] (setting [7]), 9.10; in assay [3] (setting [8]), 9.47. The pIC50 in assay [3] (setting [9]) was 9.53; in assay [3] (setting [10]), 9.18; in assay [3] (setting [11]) it was 9.20; in assay [3] (setting [12]), 9.41.

A word on the pIC50: it is the IC50 on a negative log10 scale, so that one unit is a factor of ten.
